Measured values published in ChEMBL document CHEMBL6103674, “Xiapyrroles A-F: N-Alkylpyrrole Alkaloids from the Marine-Derived Actinomycete Streptomyces xiamenensis 1310KO-148” (J Nat Prod, 2025).
The source made the active and inactive calls. No cut-off for these calls is given here.

What was measured:
[1] = tested on: RAW264.7; assay: Cytotoxicity against LPS-induced mouse RAW264.7 cells assessed as reduction in cell viability at 30 uM measured after 24 hrs by XTT assay; format: toxicity, cell-based; settings: raw264.7, 24 h
[2] = tested on: PC-3; assay: Cytotoxicity against human PC-3 cells at 30 uM; format: functional, cell-based
[3] = tested on: RPMI-1788; assay: Cytotoxicity against human RPMI-1788 cells at 30 uM; format: functional, cell-based
[4] = tested on: RPMI 8402; assay: Cytotoxicity against human RPMI 8402 cells at 30 uM; format: functional, cell-based
[5] = tested on: HL-60; assay: Cytotoxicity against human HL-60 cells at 30 uM; format: functional, cell-based
[6] = tested on: NALM-6; assay: Cytotoxicity against human NALM-6 cells at 30 uM; format: functional, cell-based
[7] = tested on: Raji; assay: Cytotoxicity against human Raji cells at 30 uM; format: functional, cell-based
[8] = tested on: RAW264.7; assay: Anti-inflammatory activity against mouse RAW264.7 cells assessed as inhibition of LPS-induced IL-6 mRNA level pretreated for 1 hr followed by induced with LPS measured after 6 hrs by quantitative RT-PCR analysis; format: functional, cell-based; settings: dose 1-30 µM, time 7.0 hrs
[9] = tested on: WSUDLCL2; assay: Cytotoxicity against human WSUDLCL2 cells at 30 uM; format: functional, cell-based
[10] = tested on: RAW264.7; assay: Anti-inflammatory activity in LPS-induced mouse RAW264.7 cells assessed as suppression of NO production pretreated for 1 hr followed by LPS addition and measured after 24 hrs by Griess reagent based assay; format: functional, cell-based
[11] = tested on: NUGC-3; assay: Cytotoxicity against human NUGC-3 cells at 30 uM; format: functional, cell-based
[12] = tested on: RAW264.7; assay: Anti-inflammatory activity against mouse RAW264.7 cells assessed as inhibition of LPS-induced iNOS mRNA level pretreated for 1 hr followed by induced with LPS measured after 6 hrs by quantitative RT-PCR analysis; format: functional, cell-based; settings: dose 1-30 µM, time 7.0 hrs
[13] = tested on: U-266; assay: Cytotoxicity against human U-266 cells at 30 uM; format: functional, cell-based
[14] = tested on: HCT-15; assay: Cytotoxicity against human HCT-15 cells at 30 uM; format: functional, cell-based
[15] = tested on: ACHN; assay: Cytotoxicity against human ACHN cells at 30 uM; format: functional, cell-based
[16] = tested on: RAW264.7; assay: Anti-inflammatory activity in LPS-induced mouse RAW264.7 cells assessed as suppression of IL-6 level pretreated for 1 hr followed by LPS addition and measured after 24 hrs by ELISA method; format: functional, cell-based
[17] = tested on: NCI-H23; assay: Cytotoxicity against human NCI-H23 cells at 30 uM; format: functional, cell-based
[18] = tested on: RAW264.7; assay: Anti-inflammatory activity in LPS-induced mouse RAW264.7 cells assessed as suppression of NO production at 30 uM pretreated for 1 hr followed by LPS addition and measured after 24 hrs by Griess reagent based assay; format: functional, cell-based; settings: time 25.0 hrs
[19] = tested on: K562; assay: Cytotoxicity against human K562 cells at 30 uM; format: functional, cell-based
[20] = tested on: MDA-MB-231; assay: Cytotoxicity against human MDA-MB-231 cells at 30 uM; format: functional, cell-based

For `CC(=O)N(O)CCCn1c(C)cc(C)c1C(=O)[C@@H](O)CO`, the Activity [1] was “Non-toxic”.
With `Cc1cc(C)n(CCc2ccc(O)cc2)c1C=O` the Activity [1] was “Non-toxic”.
`C=C1C=C(C)C(=O)N1CCc1ccc(O)cc1` was tested, and the Activity [2] was “inactive”, the Activity [3] was “inactive” and the Activity [4] was “inactive”. The Activity [1] was “Non-toxic”, the Activity [5] was “inactive” and the Activity [6] was “inactive”. For the same compound, the Activity [7] was “inactive”, the inhibition [8] was “Dose-dependent-effect” and the Activity [9] was “inactive”. For the same compound, the IC50 [10] was 29.5 µM, the Activity ([10]; time 25.0 hrs) was “Dose-dependent-effect” and the Activity [11] was “inactive”. For the same compound, the inhibition [12] was “Dose-dependent-effect”, the Activity [13] was “inactive” and the Activity [14] was “inactive”. For the same compound, the Activity [15] was “inactive”, the IC50 [16] was 10.9 µM and the Activity ([16]; time 25.0 hrs) was “Dose-dependent-effect”. The Activity [17] was “inactive”, the Activity [18] was “Active” and the Activity [19] was “inactive”. For the same compound, the Activity [20] was “inactive”.
For `CO[C@@]1(C)C=C(C)C(=O)N1CC(=O)c1ccccc1`, the Activity [1] was “Non-toxic”.
In the case of `CO[C@@]1(C)C=C(C)C(=O)N1CCc1ccc(O)cc1`, the Activity [1] is reported as “Non-toxic”.
For `CC1=C[C@@](C)(O)N(CCc2ccc(O)cc2)C1=O`, the Activity [1] was “Non-toxic”.
